We go through seven compounds from PubChem BioAssay (NCI).

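Interpolation was linear, between the two tested concentrations surrounding the appropriate level; five concentrations were tested over 48 hours in 96-well plates. GI50 marks 50% less growth. Definition used: TGI = concentration required for complete inhibition of growth.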

Common to all, as to assay: NCI anticancer screen, dose series, 48 h
Assay [1] has as its system PC-3 prostate.
In assay [2] the test system is MDA-MB-231 breast.
Assay [3] concerns LOX IMVI melanoma.
Assay [4] concerns NCI-H522 lung.
For assay [5], the system named is HCT-15 colon.
For assay [6], the system named is MOLT-4 leukemia.
The test system of assay [7] is HT29 colon.
The subject of assay [8] is T-47D breast.
Assay [9] has as its system SW-620 colon.
The subject of assay [10] is HS 578T breast.

For `O=C(Nc1cccc(-c2ccc(Cl)c(C(F)(F)F)c2)c1)C1CCN(Cc2cccc3cccnc23)CC1`, the GI50 in assay [1] was 1.41 µM; in [2], 1.84 µM; in [3], 1.5 µM; in assay [4], 1.73 µM; in assay [5] it was 1.37 µM; in assay [6], 1.79 µM. Further, the GI50 in [7] was 1.21 µM; in assay [8], 1.61 µM; in [9], 1.77 µM; in [10] it was 2.14 µM. For the same compound, the TGI in assay [1] amounted to 2.93 µM; in assay [2], 3.41 µM; in [3] it was 2.89 µM; in assay [4], 3.68 µM; in assay [5] it was 2.79 µM; in assay [6], 4.52 µM. For the same compound, the TGI was found to be 3.33 µM in [7], 3.6 µM in assay [8], 3.54 µM in assay [9] and 4.94 µM in assay [10].

As to `Cc1cn2c(/C=N/N=C(N)N)c(-c3ccccn3)nc2s1`, the GI50 is 15.6 µM in assay [1]; 17.2 µM in assay [2]; 20.1 µM in assay [3]; 14.2 µM in assay [4]; 19.5 µM in assay [5]; 8.67 µM in assay [6]. In addition, the GI50 in assay [7] is 19.4 µM; in assay [8], 7.59 µM; in assay [9] it was 7.61 µM; in [10], 19.5 µM. Further, the TGI in assay [1] was 53.9 µM; in assay [2] it was 39.6 µM; in assay [3], 46.1 µM; in [4] it was 53.3 µM; in [5] it was 39.1 µM; in assay [6], greater than 100 µM. In addition, the TGI is greater than 92.8 µM in assay [7], 18.2 µM in assay [8], 25 µM in assay [9] and 55.6 µM in assay [10].

As to `O=C(N/N=C/c1ccc(O)cc1O)c1cccc(Nc2ccnc(C(F)(F)F)c2)c1`, the GI50 was 3.01 µM in [1]; 1.08 µM in assay [2]; 0.501 µM in assay [3]; 1.27 µM in assay [4]; 2.2 µM in assay [5]; 0.491 µM in assay [6]. For the same compound, the GI50 in assay [7] is 5.14 µM; in assay [8] it was 0.66 µM; in assay [9] it was 4.07 µM; in assay [10], 7.71 µM. The TGI in assay [1] is 34.2 µM; in assay [2] it was 51.8 µM; in assay [3], 12.5 µM; in [4] it was 22.6 µM; in assay [5], 51.7 µM; in assay [6], 4.56 µM. Besides, the TGI in assay [7] was greater than 100 µM; in assay [8] it was 15.6 µM; in assay [9], 21.4 µM; in assay [10], 46.7 µM.

On to `Cc1cc2c(C(N)=O)c(N)n(-c3c(C)ccc(O)c3C)c2nc1C`, for which the GI50 was 32.7 µM in [1]; 2.12 µM in [2]; 1.5 µM in assay [3]; 1.48 µM in [4]; 5.51 µM in [5]; 2.86 µM in assay [6]. Also, the GI50 in assay [7] was 0.585 µM; in [8] it was 6.68 µM; in assay [9] it was 3.17 µM; in [10], 1.44 µM. Further, the TGI in [1] is greater than 100 µM; in [2], 13.9 µM; in [3], 4.85 µM; in [4] it was 5.09 µM; in assay [5], 65.4 µM; in [6], greater than 100 µM. For the same compound, the TGI in assay [7] was greater than 100 µM; in [8], greater than 100 µM; in [9], 56.4 µM; in [10] it was 7.18 µM.

`COc1cc(C2=N/C(=C/c3cccs3)C(=O)O2)cc(OC)c1OC`: the TGI in assay [1], in assay [2], in assay [3], in [4], in [5] and in assay [6] was greater than 100 µM throughout. For the same compound, the TGI in assay [7], in [8], in [9] and in assay [10] was greater than 100 µM each time.

Regarding `COc1cc(-c2csc(NC(=O)Nc3ccc(C(F)(F)F)cc3)n2)cc(OC)c1OC`, the GI50 is 1.84 µM in [1]; 1.55 µM in [2]; 1.59 µM in assay [3]; 1.9 µM in [4]; 1.71 µM in [5]; 1.85 µM in assay [6]. Moreover, the GI50 in assay [7] was 2.39 µM; in assay [8] it was 1.97 µM; in [9], 2.19 µM; in [10], 2.17 µM. Moreover, the TGI in [1] was 8.2 µM; in assay [2], 3.69 µM; in [3] it was 3.15 µM; in assay [4], 5.88 µM; in assay [5] it was 4.09 µM; in assay [6], 5.46 µM. Further, the TGI in assay [7] is 7.08 µM; in assay [8], 7.65 µM; in assay [9], 5.3 µM; in assay [10] it was 5.47 µM.

Consider `CN1CCN(c2ccc(NC(=O)c3cncnc3Nc3ccc(OCc4ccccn4)c(Cl)c3)cc2)CC1`, for which the GI50 is 3.8 µM in assay [1]; 2 µM in assay [2]; 3.39 µM in assay [3]; 4.48 µM in [4]; 0.961 µM in assay [5]; 1.64 µM in [6]. Moreover, the GI50 in assay [7] was 0.948 µM; in [8] it was 1.98 µM; in assay [9], 1.14 µM; in assay [10], 4.17 µM. Besides, the TGI is 12 µM in assay [1]; 6.56 µM in [2]; 8.46 µM in assay [3]; 10.4 µM in [4]; 3.19 µM in assay [5]; 9.42 µM in assay [6]. For the same compound, the TGI in assay [7] was found to be 4.49 µM; in assay [8], 7.83 µM; in assay [9], 4.63 µM; in assay [10], 13.5 µM.
